From US8445006B2, “Biomolecular coating for implants” (Georgia Tech Research Corporation, priority 2006, dated 2013) come the findings set out here.

What all share (assay type): cell-based, rat
The subject of data set [1] is bone marrow stromal cells. The data set can be described thus: Centrifugation cell adhesion assay on poly(OEGMA) brush titanium surfaces. As to conditions: poly(OEGMA) brushes, 0.9 pmol/cm^2 ligand; for cell adhesion, no antibody: serum exposure. The procedure:
Cell adhesion to functionalized and untreated titanium surfaces was measured using a centrifugation assay that applies controlled detachment forces. […] Control titanium slides were coated with 10% FBS (to model serum protein adsorption) or blocking buffer (5% non-fat dry milk in PBS to produce a non adhesive support). Stromal cells were loaded with the fluorescent dye calcein-AM (2 μg/ml, Molecular Probes), detached using trypsin+EDTA, and resuspended serum-free in PBS with 2 mM dextrose. Cells were seeded onto the substrates (10,000 cells/well) for 1 h at 37° C. […] After filling the wells with PBS/dextrose and sealing with transparent adhesive tape, substrates were inverted and spun at a fixed speed in a centrifuge (Beckman Allegra 6, GH 3.8 rotor) to apply a centrifugal force corresponding to 12 g. After centrifugation, media was exchanged and fluorescence intensity was read to measure remaining adherent cells. For each well, adherent cell fraction was calculated as the ratio of post-spin to pre-spin fluorescence readings.
In vitro evaluation of these engineered titanium surfaces was performed using primary rat bone marrow stromal cells since this heterogeneous population contains osteoprogenitors, and human bone marrow stromal cells are currently used in clinical applications. Cell adhesion was examined using a centrifugation assay that applies a controlled detachment force. […] As a complementary test of integrin specificity, integrin binding was quantified using a biochemical cross-linking/extraction/reversal technique.

The test system of data set [2] is FAK. The data set can be described thus: FAK phosphorylation on ligand-tethered brush surfaces with integrin blocking antibodies. As to conditions: for effect of integrin blocking antibodies on FAK phosphorylation: anti-α5 and anti-β3 antibodies. The procedure:
Cells were detached and gently agitated in serum-free suspension for 45 min to reduce background. Cells were then seeded at 200 cells/mm^2 serum-free for 1 h. Cells were lysed in RIPA buffer (1% Triton X-100, 1% sodium deoxycholate, 0.1% SDS, 150 mM NaCl, 150 mM Tris-HCl (pH 7.2), 350 μg/ml PMSF, 10 μg/ml leupeptin, and 10 μg/ml aprotonin) for 20 min on ice. Samples were pipetted up and down 20 times and centrifuged at 8000 g for 10 min to shear DNA and isolate protein contents. Total protein was quantified using micro-BCA (Pierce). Equal amounts of protein were boiled for 10 min in Laemmli buffer and separated by SDS-PAGE on a 7% gel, transferred to nitrocellulose membranes, and blocked with Blotto (5% nonfat dry milk, 0.20% Tween-20) overnight at 4° C. Membranes were gently rocked in antibodies against FAK and specific phosphorylated FAK tyrosine residues (anti-total FAK at 1 μg/ml, anti-FAK pY397 at 0.35 μg/ml, anti-FAK pY576 at 0.5 μg/ml) for 1 h. After washing with TBS-Tween (20 mM Tris HCl pH 7.6, 137 mM NaCl, 0.1% Tween-20), secondary antibody (biotin-conjugated anti-rabbit IgG; 1:20,000) was added for 1 h, followed by alkaline phosphatase-conjugated anti-biotin antibody (1:10,000) in Blotto. Immunoreactivity was assessed by ECF fluorescent substrate. FAK bands were visualized by a Fuji Image Analyzer and phosphorylation levels normalized to total FAK.
FAK is an intracellular signaling molecule involved in integrin-mediated signal transduction and the osteogenic differentiation pathway. Phosphotyrosine-specific antibodies were used to examine the activation state of three important tyrosines in FAK: Y397 (autophosphorylation site), Y576 (essential for maximal kinase activity), and Y861 (major Src phosphorylation site) (FIG. 13C). […] These differences in integrin binding specificity and FAK activation modulate cell signaling pathways and higher order cellular activities.

Data set [3] deals with bone marrow stromal cells. The experiment in a line: Alkaline phosphatase biochemical activity assay. The procedure: Primary bone marrow stromal cells were harvested from the femora of young adult male Wistar rats in accordance with an IACUC-approved protocol. After excision, hindleg femora and tibiae were cleared of soft tissue and rinsed in growth medium (α-minimal essential medium supplemented with 10% fetal bovine serum, 1% penicillin-streptomycin, and 0.3 μg/ml amphotericin B). The ends of the long bones were then removed and the marrow space was flushed with culture medium (3-5 ml), using a syringe with an 18-gauge needle. Marrow isolates were pooled, centrifuged, resuspended in growth medium, and seeded for adhesion-dependent selection on tissue culture polystyrene dishes. Non-adherent hematopoietic cells were removed during subsequent medium exchanges, which occurred every other day. Cells were subcultured every two days according to standard techniques. For in vitro osteogenic assays, cells were seeded at 10,000 cells/cm^2 in growth medium. […]
ALP activity was quantified at 7 days in culture using a modification of the Sodek and Berkman method. […] After sonication and centrifugation, the protein concentration was quantified using a Pierce Micro BCA protein assay kit. […] After a 60 min incubation at 37° C., the fluorescence was read at an excitation of 360 nm and an emission of 465 nm on an HTS 7000 Plus BioAssay Reader (Perkin Elmer). […]

Where [4] appears, read: vs RGD-functionalized brushes and serum-exposed titanium.

In the case of “FNIII7-10: monobiotinylated recombinant fibronectin fragment spanning the 7-10th type III repeats of fibronectin; α5β1 integrin ligand”, in data set [1], the “cell adhesion with anti-αv antibody” value is reported as “had no effect”; the “cell adhesion with blocking anti-α5 antibody” value is “completely eliminated cell adhesion”; the “cell adhesion, no antibody” value is “high levels of cell adhesion”. Besides, in data set [2], the “effect of integrin blocking antibodies on FAK phosphorylation” value is “blocking antibodies against α5, but not β3, reduced the levels of phospho-Y397 and Y576”. Besides, in data set [2] (setting [4]), the “FAK Y397 phosphorylation” value is listed as “higher phosphorylation levels” and the “FAK Y576 phosphorylation” value is given as “higher phosphorylation levels”. Besides, the alkaline phosphatase activity result in data set [3] (tethered brushes vs RGD-functionalized surfaces) is reported as “higher alkaline phosphatase activity”.
In the case of “GGYGGGPC(GPP)5GFOGER(GPP)5GPC [GFOGER peptide]”, the ALP activity entry in data set [3] (7 days, adsorbed coating vs untreated titanium) was “elevated levels of activation”.
As for “GRGDSPC [RGD peptide, linear RGD oligopeptide purchased from BACHEM; primarily supports αvβ3-mediated adhesion, reference compound]”, in data set [1], the “cell adhesion with anti-αv antibody” value was “eliminated adhesion” and the “cell adhesion, no antibody” value was “high levels of cell adhesion”. Further, the “effect of integrin blocking antibodies on FAK phosphorylation” value in data set [2] is given as “only the anti-β3 antibody reduced FAK phosphorylation”. The “FAK Y861 phosphorylation” value in data set [2] (relative to FNIII7-10-tethered surface) was “elevated”.
